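Grown in 96-well plates, cells were treated for 48 hours with each compound at five concentrations. Insufficient inhibition: endpoint recorded as highest concentration tested. GI50 is the concentration that inhibits growth by half.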 Activity calls are given as the source filed them. Cut-off read from the data, not from the text of the source: active = GI50 up to about 1.1 µM and inactive = higher.
What was measured:
Experiment in all cases: NCI anticancer screen, dose series, 48 h
HT-29 = test system: HT-29
SF-268 = test system: SF-268
A498 = test system: A498
NCI-H522 = test system: NCI-H522
KM12 = test system: KM12
MDA-N = test system: MDA-N
M14 = test system: M14
MDA-MB-231 = test system: MDA-MB-231
SF-295 = test system: SF-295
NCI/ADR-RES = test system: NCI/ADR-RES
UACC-257 = test system: UACC-257
Hs-578T = test system: Hs-578T
ACHN = test system: ACHN
SK-OV-3 = test system: SK-OV-3
HCT-15 = test system: HCT-15
MOLT-4 = test system: MOLT-4
PC-3 = test system: PC-3
UACC-62 = test system: UACC-62
CAKI-1 = test system: CAKI-1
U-251 = test system: U-251
SK-MEL-5 = test system: SK-MEL-5
LOX IMVI = test system: LOX IMVI
NCI-H226 = test system: NCI-H226
SW-620 = test system: SW-620
OVCAR-3 = test system: OVCAR-3
SR = test system: SR
NCI-H460 = test system: NCI-H460
SNB-19 = test system: SNB-19
OVCAR-5 = test system: OVCAR-5
T47D = test system: T47D
HCT-116 = test system: HCT-116
A549 = test system: A549
MDA-MB-435 = test system: MDA-MB-435
HOP-92 = test system: HOP-92
RPMI-8226 = test system: RPMI-8226
K562 = test system: K562
IGROV-1 = test system: IGROV-1
786-0 = test system: 786-0
UO-31 = test system: UO-31
OVCAR-8 = test system: OVCAR-8
DU-145 = test system: DU-145
SF-539 = test system: SF-539
CCRF-CEM = test system: CCRF-CEM
SK-MEL-2 = test system: SK-MEL-2
HL-60 = test system: HL-60
HOP-62 = test system: HOP-62
NCI-H23 = test system: NCI-H23
MCF7 = test system: MCF7
COLO 205 = test system: COLO 205
SN12C = test system: SN12C
OVCAR-4 = test system: OVCAR-4
SK-MEL-28 = test system: SK-MEL-28
EKVX = test system: EKVX
Malme-3M = test system: Malme-3M
RXF 393 = test system: RXF 393
BT-549 = test system: BT-549
TK-10 = test system: TK-10

C=C[C@H]1CC[C@H]2[C@@H]3CC=C4C[C@@H](OC5OCC(O)C(O)C5O)CC[C@]4(C)[C@H]3CC[C@]12C (stereo partly drawn)
GI50 (HT-29): 24.4 µM (inactive)
GI50 (SF-268): 13.8 µM (inactive)
GI50 (A498): 4.22 µM (inactive)
GI50 (NCI-H522): 11.4 µM (inactive)
GI50 (KM12): 12.9 µM (inactive)
GI50 (MDA-N): 17.6 µM (inactive)
GI50 (M14): 16.1 µM (inactive)
GI50 (MDA-MB-231): 11.4 µM (inactive)
GI50 (SF-295): 15.2 µM (inactive)
GI50 (NCI/ADR-RES): 15.9 µM (inactive)
GI50 (UACC-257): 82.8 µM (inactive)
GI50 (Hs-578T): 17.1 µM (inactive)
GI50 (ACHN): 2.83 µM (inactive)
GI50 (SK-OV-3): 12.9 µM (inactive)
GI50 (HCT-15): 25.5 µM
GI50 (MOLT-4): 46.6 µM (inactive)
GI50 (PC-3): 14.3 µM (inactive)
GI50 (UACC-62): 15.5 µM (inactive)
GI50 (CAKI-1): 6.62 µM (inactive)
GI50 (U-251): 14.9 µM (inactive)
GI50 (SK-MEL-5): 18.2 µM (inactive)
GI50 (LOX IMVI): 10.8 µM (inactive)
GI50 (NCI-H226): 15.5 µM (inactive)
GI50 (SW-620): 17.7 µM (inactive)
GI50 (OVCAR-3): 11.9 µM (inactive)
GI50 (SR): 14.7 µM (inactive)
GI50 (NCI-H460): 13.1 µM (inactive)
GI50 (SNB-19): 25.7 µM (inactive)
GI50 (OVCAR-5): 11.7 µM (inactive)
GI50 (T47D): 14.3 µM (inactive)
GI50 (HCT-116): 13.7 µM (inactive)
GI50 (A549): 12.9 µM (inactive)
GI50 (MDA-MB-435): 15.9 µM (inactive)
GI50 (HOP-92): 1.97 µM (inactive)
GI50 (RPMI-8226): 81.7 µM (inactive)
GI50 (K562): 25.8 µM (inactive)
GI50 (IGROV-1): 10 µM (inactive)
GI50 (786-0): 15.3 µM (inactive)
GI50 (UO-31): 13.3 µM (inactive)
GI50 (OVCAR-8): 16.3 µM (inactive)
GI50 (DU-145): 34.1 µM (inactive)
GI50 (SF-539): 14.9 µM (inactive)
GI50 (CCRF-CEM): 24.8 µM (inactive)
GI50 (SK-MEL-2): 16.6 µM (inactive)
GI50 (HL-60): 29.7 µM (inactive)
GI50 (HOP-62): 18 µM (inactive)
GI50 (NCI-H23): 26.1 µM (inactive)
GI50 (MCF7): 36.8 µM (inactive)
GI50 (COLO 205): 21.7 µM (inactive)
GI50 (SN12C): 15.7 µM (inactive)

C/C=C1\NC(=O)[C@H](Cc2ccccc2)NC(=O)[C@@H](C(C)C)NC(=O)[C@@H]([C@@H](C)CC)NC(=O)[C@H](NC(=O)[C@H](NC(=O)[C@H](CCCN)NC(=O)[C@H]2CCCN2C(=O)[C@H](NC(=O)[C@@H](NC(=O)[C@@H](NC(=O)[C@H](NC(=O)CCCC(C)C)C(C)C)[C@@H](C)O)C(C)C)C(C)C)[C@@H](C)CC)[C@@H](C)OC(=O)[C@H](C(C)C)NC1=O
GI50 (OVCAR-4): 863 nM (active)
GI50 (SF-268): 1.42 µM (inactive)
GI50 (SK-MEL-28): 1.5 µM (inactive)
GI50 (NCI-H522): 3.71 µM (inactive)
GI50 (EKVX): 265 nM (active)
GI50 (M14): 1.38 µM (inactive)
GI50 (SF-295): 1.69 µM (inactive)
GI50 (NCI/ADR-RES): 3.04 µM (inactive)
GI50 (Malme-3M): 2 µM (inactive)
GI50 (MOLT-4): 12.1 µM (inactive)
GI50 (UACC-62): 1.42 µM (inactive)
GI50 (U-251): 0.344 µM (active)
GI50 (SK-MEL-5): 0.456 µM (active)
GI50 (LOX IMVI): 3.64 µM (inactive)
GI50 (NCI-H226): 2.23 µM (inactive)
GI50 (SW-620): 0.344 µM (active)
GI50 (OVCAR-3): 1.36 µM (inactive)
GI50 (SR): 14.4 µM (inactive)
GI50 (NCI-H460): 1.52 µM (inactive)
GI50 (SNB-19): 0.347 µM (active)
GI50 (OVCAR-5): 1.63 µM (inactive)
GI50 (MDA-MB-435): 1.14 µM (inactive)
GI50 (K562): 3.59 µM (inactive)
GI50 (IGROV-1): 1.44 µM (inactive)
GI50 (786-0): 1.74 µM (inactive)
GI50 (RXF 393): 3.1 µM (inactive)
GI50 (UO-31): 2.1 µM (inactive)
GI50 (OVCAR-8): 4.63 µM (inactive)
GI50 (SF-539): 1.69 µM (inactive)
GI50 (CCRF-CEM): 2.86 µM (inactive)
GI50 (SK-MEL-2): 2.31 µM (inactive)
GI50 (HL-60): 39.4 µM (inactive)
GI50 (BT-549): 3.44 µM (inactive)
GI50 (HOP-62): 1.76 µM (inactive)
GI50 (NCI-H23): 4.2 µM (inactive)
GI50 (TK-10): 1.85 µM (inactive)
GI50 (MCF7): 0.461 µM (active)
GI50 (SN12C): 2.64 µM (inactive)

Reference: ChEMBL document CHEMBL1201862, “PubChem BioAssay data set” (2004)
